Earlier results on 1 molecule are cited in patent US20080161402A1, “Targeting the Reverse Mode of the Na+/Ca2+ Exchanger For the Treatment of Neurodegenerative Conditions” (ALLERGAN, INC., priority 2004, published 2008).

SMILES strings stand for the structures.

The test system of this data set is Na+/Ca2+ exchanger. To be noted: variety of cell types including neurons; reverse vs forward mode.

With `CS(=O)(=O)O.N=C(N)SCCc1ccc(OCc2ccc([N+](=O)[O-])cc2)cc1` [KB-R743, 2-[2-[4-(4-nitorbenzyloxy)phenyl]ethyl]isothiourea methanesulfonte], the “mode selectivity of Na+/Ca2+ exchanger block” value is recorded as “preferentially block the reverse mode”.
